Source: patent publication US20220048987A1, “METHOD OF TREATMENT TO PREVENT OR REVERSE AGE-ASSOCIATED INFLAMMATION, COGNITIVE DECLINE, AND NEURODEGENERATION” (The Board of Trustees of the Leland Stanford Junior …, priority 2020, published 2022)
Entries after “also recorded” stand apart in the source; their conditions may differ.

System: aged mice
Experiment: Nanostring transcriptomics of peritoneal macrophages from treated mice
Assay type: in vivo, mouse
Description: For gene expression analysis on the NanoString nCounter system, 100 ng of RNA was hybridized to a multiplexed nucleotide probe pool for 16 hours at 65° C. Enriched targets were purified and quantified using the nCounter MAX Analysis System. NanoString data analysis was performed by Canopy Biosciences (St. Louis, Mo.). Raw counts were normalized using the geometric mean of both positive control probes (technical variability) and housekeeping gene probes (assay input variability). Normalized data was uploaded to the interactive analysis platform Rosalind (https://rosalind.onramp.bio/), with a HyperScale architecture developed by OnRamp BioInformatics, Inc. (San Diego, Calif.) Read Distribution percentages, violin plots, identity heatmaps, and sample MDS plots were generated as part of the QC step. The limma R library1 was used to calculate fold changes and p-values and perform optional covariate correction. Clustering of genes for the final heatmap of differentially expressed genes was done using the PAM (Partitioning Around Medoids) method using the fpc R library2 that takes into consideration the direction and type of all signals on a pathway, the position, role and type of every gene, etc. Functional enrichment analysis of pathways, gene ontology, domain structure and other ontologies was performed using HOMER3. Several database sources were referenced for enrichment analysis, including Interpro4, NCBI5, MSigDB6,7, REACTOME8, WikiPathways9. Enrichment was calculated relative to a set of background genes relevant for the experiment.

[1] = aged mice, 2.5 mg/kg/d, 6 weeks

COc1ccc2cc(OCC3(C(=O)O)CN(C(=O)c4ccc(F)cc4)C3)ccc2c1 [PF-04418948]
expression of glycolytic and TCA genes in peritoneal macrophages (aged (20-22 mo) mice, 2.5 mg/kg/d for 6 weeks): restores expression levels of glycolytic and TCA genes in aged mice | age-related upregulation of pro-inflammatory gene transcripts and downregulation of glycolytic and TCA gene transcripts in macrophages [1]: reciprocally reversed | top differentially regulated chemokine and cytokine transcripts in peritoneal macrophages [1]: shifts expression towards young macrophage levels | transcriptome of peritoneal macrophages (clustering of 1449 genes, PCA) (young (3-4 mo) and aged (20-22 mo) mice, 2.5 mg/kg/d, 6 weeks, 2.5 mg/kg/day): cluster with young mice treated with vehicle or PF-04418948; also recorded: significant shift away from vehicle-treated aged mice toward young macrophages
